B1: CD40L: CD40 ligand, used in the form of CD40L transfected fibroblasts (protein, UniProt P29965 113-261, looked up)
CD40 ligand, soluble form: MQKGDQNPQIAAHVISEASSKTTSVLQWAEKGYYTMSNNLVTLENGKQLTVKRQGLYYIYAQVTFCSNREASSQAPFIASLCLKSPGRFERILLRAANTHSSAKPCGQQSIHLGGVFELQPGASVFVNVTDPSQVSHGTGFTSFGLLKL
modifications: expressed on transfected fibroblasts

Tests used:
[1] = system: B-CLL cells; test: Response of B-CLL cells to CD40L-transfected fibroblasts after compound pre-treatment; type: cell-based, human; conditions: for response of B-CLL cells to CD40L treatment (percentage of viable cells per ml): relapsed patient at baseline, pre-treated 48 hours, then coculture with CD40L-transfected or control fibroblasts 48 hours (FIG. 5)
From the text: (§1) L929 cells are derived from an immortalized mouse fibroblast cell line, and are routinely used in in-vitro assays. The L929 cells used herein were obtained from the American Type Culture Collection (ATCC). Raji cells were also obtained from ATCC. Namalwa cells were obtained from the German Resource Centre for Biological Materials DSMZ. B-CLL cells were obtained from the peripheral blood of patients enrolled in a clinical trial.
(§2) Namalwa, Raji, CD40L-transfected fibroblasts and L929 fibroblasts were cultured in RPMI medium (Gibco-Invitrogen) supplemented with 10% FBS. B-CLL cells were cultured in Iscove's medium (Gibco-Invitrogen) plus 15% FBS. Namalwa, Raji and B-CLL cells were cultured with compounds from 2 to 4 days. Fibroblasts were maintained in culture in monolayers. The day before the co-culture, the fibroblasts were treated with mitomycin C to stop proliferation and were then replated. Suspension cells were then added to the fibroblasts and the culture was incubated for 2 to 4 days.
(§3) Flow cytometry was then used to determine cell numbers and the percentage of apoptotic cells using the FACSArray system (BD Biosciences). The cells were stained with 7-Amino-Actinomycin D (7-AAD) (BD Pharmingen) for 10 minutes at room temperature prior to flow cytometry analysis in order to identify non-viable cells.
Pre-treatment with immunomodulatory compounds also augmented the sensitivity of Namalwa cells and CLL cells to CD40 ligation by CD40L. B-CLL cells taken from a relapsed patient at baseline were pre-treated with either 1,3-dioxo-2-(2,6-dioxopiperidin-3-yl)-4-aminoisoindoline or 1-oxo-2-(2,6-dioxopiperidin-3-yl)-4-aminoisoindoline for 48 hours. The cells were then cocultured with either CD40L-transfected fibroblasts or control fibroblasts for another 48 hours. The percentage of viable cells per ml was then measured (FIG. 5). Cells from another patient were pretreated with 1-oxo-2-(2,6-dioxopiperidin-3-yl)-4-aminoisoindoline for 24 hours and then cocultured with either CD40L-transfected fibroblasts or control fibroblasts for an additional 48 hours.

[2] = system: normal primary B cells; test: Effect on normal primary B cells (p21 expression, viable cells); type: cell-based; conditions: for viable normal B cells: normal primary B cells in culture; for level of p21 expression: normal primary B cells, after 24 hours and 72 hours of culture
Protocol: as §3
Total RNA was isolated from Namalwa and B-CLL cells using RNAeasy (Qiagen). Gene expression analysis was performed using Affymetrix human U133A gene chips. Double-stranded cDNA was synthesized using […] of total RNA. Biotin-labeled cRNA was synthesized using a MessageAmp aRNA kit (Ambion). […] of cRNA was fragmented and hybridized to each array. The above procedures were performed twice for each RNA sample to obtain replicate biotin-labeled probes.
Cells cultured in the presence or absence of 1,3-dioxo-2-(2,6-dioxopiperidin-3-yl)-4-aminoisoindoline or 1-oxo-2-(2,6-dioxopiperidin-3-yl)-4-aminoisoindoline were characterized using flow cytometry and gene array analysis.

[3] = system: Namalwa cells; test: Proliferation of Namalwa cells alone, with control fibroblasts or with CD40L-expressing fibroblasts; type: cell-based; conditions: for sensitivity of Namalwa cells to CD40 ligation by CD40L: pre-treatment with compound, CD40L transfected fibroblasts (FIG. 4)
From the text: as §1, §2, §3

[4] = system: Raji cells; test: CD40 expression on Raji cells by flow cytometry; type: cell-based; conditions: 10 μM, 48 hours of incubation, vs DMSO control (FIG. 1)
[5] = system: CD19^+CD5^+ cells; test: CD40 on CD19+CD5+ cells of patients undergoing therapy, flow cytometry; type: in vivo, human
[6] = system: B-CLL cells; test: CD40 expression in cultured B-CLL cells (anti-CD40 APC antibody mean intensity); type: cell-based, human; conditions: for mean intensity of anti-CD40 APC antibody: CD5+ CD19+ CLL blasts from a newly diagnosed patient, 4 days in culture (FIG. 2)

Molecule | response of B-CLL cells to CD40L treatment (total cells/ml) ([1]; newly diagnosed patient, pre-treated 0.1, 1.0 or 10 μM 24 hours, then CD40L-transfected or control fibroblasts 48 h (FIG. 6)) | response of B-CLL cells to CD40L treatment (percentage of viable cells per ml) [1] | viable normal B cells [2] | level of p21 expression [2] | sensitivity of Namalwa cells to CD40 ligation by CD40L [3] | percentage of CD40+ cells [4] | CD40+ cells among CD19+CD5+ cells ([5]; patient of FIG. 7, after 8 days of therapy, baseline 6.4%) | CD40+ cells among CD19+CD5+ cells ([5]; patient of FIG. 8, after 8 days of therapy, baseline 12.5%) | CD40+ cells among CD19+CD5+ cells ([5]; patient of FIG. 9, after 28 days of therapy, baseline 2.4%) | CD40 in B-CLL cells of patients ([5]; patients undergoing therapy, summary statement) | mean intensity of anti-CD40 APC antibody [6] | proliferation of Namalwa cells ([3]; 0.01-10 μM, alone or in the presence of control fibroblasts (FIG. 4)) | mean intensity of anti-CD40 APC antibody in CD5+CD19+ CLL blasts ([6]; newly diagnosed patient, 0.1, 1.0 or 10 μM, 24 hours, vs DMSO (FIG. 3)) | cell growth / cell apoptosis ([1]; B-CLL cells treated with CD40L transfected fibroblasts) | cell growth / cell apoptosis ([3]; Namalwa cells treated with CD40L transfected fibroblasts)
Nc1cccc2c1CN(C1CCC(=O)NC1=O)C2=O (stereo not drawn) [1-oxo-2-(2,6-dioxopiperidin-3-yl)-4-aminoisoindoline] | increases the response of B-CLL cells to CD40L treatment | increases the response of B-CLL cells to CD40L treatment | dose-dependent increase in viable normal B cells | did not increase the level of p21 expression | increased the sensitivity of Namalwa cells to CD40 ligation by CD40L | increase the number of CD40^+ Raji cells | 57.4% | 36.7% | 13.9% | upregulation of CD40 in B-CLL cells | approximately doubled | – | – | – | –
Nc1cccc2c1C(=O)N(C1CCC(=O)NC1=O)C2=O (stereo not drawn) [1,3-dioxo-2-(2,6-dioxopiperidin-3-yl)-4-aminoisoindoline] | – | increases the response of B-CLL cells to CD40L treatment | dose-dependent increase in viable normal B cells | did not increase the level of p21 expression | increased the sensitivity of Namalwa cells to CD40 ligation by CD40L | increase the number of CD40^+ Raji cells | – | – | – | – | approximately doubled | inhibiting cell proliferation in a dose dependent manner | augments the expression of CD40 in a dose responsive manner | – | –
B1 | – | – | – | – | – | – | – | – | – | – | – | – | – | inhibit cell growth and/or augment cell apoptosis | inhibit cell growth and/or augment cell apoptosis

From patent publication US20090232796A1, “METHOD OF TREATING CANCER BY ADMINISTERING AN IMMUNOMODULATORY COMPOUND IN COMBINATION WITH A CD40 ANTIBODY OR CD40 LIGAND” (priority 2008, published 2009)
